Like-named read-outs stand apart in the source and are kept apart here.
Columns and labels:
human TLR7 = target: T1, human TLR7 (Homo sapiens, UniProt Q9NYK1); assay: Human TLR7 agonist activity reporter assay (HEK-Blue TLR7 cells, SEAP reporter); type: cell-based; conditions: 18 h treatment
T1 construct: host or cells: HEK-Blue TLR7 cells (engineered human embryonic kidney cells)
T1 sequence (Q9NYK1 27-1049): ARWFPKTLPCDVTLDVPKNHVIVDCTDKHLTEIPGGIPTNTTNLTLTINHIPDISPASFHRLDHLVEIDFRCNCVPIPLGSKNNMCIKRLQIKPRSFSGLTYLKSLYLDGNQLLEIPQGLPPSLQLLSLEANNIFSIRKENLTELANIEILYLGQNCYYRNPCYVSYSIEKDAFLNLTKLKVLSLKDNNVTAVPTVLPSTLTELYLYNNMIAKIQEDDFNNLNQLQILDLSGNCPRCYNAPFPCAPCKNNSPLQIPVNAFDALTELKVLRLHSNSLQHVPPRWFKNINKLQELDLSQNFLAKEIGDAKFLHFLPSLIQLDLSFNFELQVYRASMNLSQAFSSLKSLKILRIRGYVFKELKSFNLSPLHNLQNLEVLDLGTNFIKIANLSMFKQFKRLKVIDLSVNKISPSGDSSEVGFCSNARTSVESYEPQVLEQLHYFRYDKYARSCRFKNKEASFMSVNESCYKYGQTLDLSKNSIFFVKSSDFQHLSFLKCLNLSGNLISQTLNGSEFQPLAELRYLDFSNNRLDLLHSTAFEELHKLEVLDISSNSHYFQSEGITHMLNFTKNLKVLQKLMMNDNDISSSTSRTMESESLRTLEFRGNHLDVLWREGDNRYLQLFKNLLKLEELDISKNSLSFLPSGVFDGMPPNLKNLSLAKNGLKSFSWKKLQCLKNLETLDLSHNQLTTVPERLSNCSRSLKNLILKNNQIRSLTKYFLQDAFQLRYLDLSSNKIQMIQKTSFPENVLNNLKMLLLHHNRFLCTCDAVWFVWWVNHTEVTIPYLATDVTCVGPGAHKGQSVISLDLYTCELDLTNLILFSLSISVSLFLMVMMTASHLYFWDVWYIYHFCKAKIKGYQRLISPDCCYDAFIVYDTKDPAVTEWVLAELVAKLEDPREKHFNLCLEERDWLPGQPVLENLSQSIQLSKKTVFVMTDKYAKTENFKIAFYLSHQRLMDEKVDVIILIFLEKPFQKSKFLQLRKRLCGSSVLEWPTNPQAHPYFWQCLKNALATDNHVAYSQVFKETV
Method in brief: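 HEK-Blue TLR7 cells (15,000/well) treated with compound for 18 h at 37 °C, 5% CO2. Secreted SEAP measured with Quanti-Blue, 30 min, OD 620 nm. EC50 taken as concentration giving half-maximal response between baseline and maximum.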

CD69 = assay: Induction of CD69 in human whole blood; type: cell-based; conditions: 17 h, CD69 surface staining, 100% set to 1 uM resiquimod
Method in brief: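 Heparinized human whole blood, RPMI-diluted, incubated with TLR7 agonist (final 1 uM from 1 mM stock) for 17 h at 37 °C. CD69-PE surface staining with CD14/CD19 gating, fix/lysis, then flow cytometry; curves normalized with 1 uM resiquimod as 100%.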

[1] = average where assay repeated, Table A1, read-out: hTLR7 Agonism EC50
[2] = average where assay repeated, Table A1, read-out: hWB CD69 EC50
[3] = Table A2, read-out: hTLR7 Agonism EC50
[4] = Table A2, read-out: hWB CD69 EC50

Row | Compound | EC50 (human TLR7; [1]) [nM] | EC50 (CD69; [2]) [nM] | EC50 (human TLR7; [3]) [nM] | EC50 (CD69; [4]) [nM]
1 | CCCCNc1nc(N)nc2cnn(Cc3cc(CN(C)C(=O)CCN(C)C)ccc3OC)c12 [Compound 128, N-[(3-{[5-amino-7-(butyl-amino)-1H-pyrazolo[4,3-d]pyrimidin-1-yl]methyl}-4-methoxyphenyl)methyl]-3-(dimethylamino)-N-methylpropanamide] | 56.2 | 12.6 |  | 
2 | CCC[C@@H](CCO)Nc1nc(N)nc2cnn(Cc3cc(CN4CC[C@H](O)C4)c(F)cc3OC)c12 [Compound 176, (3S)-1-({5-[(5-amino-7-{[(3S)-1-hydroxyhexan-3-yl]amino}-1H-pyrazolo[4,3-d]pyrimidin-1-yl)methyl]-2-fluoro-4-methoxyphenyl}methyl) pyrrolidin-3-ol] |  |  | 57.2 | 5.7
3 | CCCCNc1nc(N)nc2cnn(Cc3cc(CNC4(C)CCOCC4)ccc3OC)c12 [Compound 119, N7-butyl-1-[(2-methoxy-5-{[(4-methyloxan-4-yl)amino]methyl}phenyl)methyl]-1H-pyrazolo[4,3-d]pyrimidine-5,7-diamine] | 529 | 227 |  | 
4 | COc1ccc(C(=O)NC2CCN(C)CC2)cc1Cn1ncc2nc(N)nc(NCC3CC4(CC4)C3)c21 [Compound 152, 3-({5-amino-7-[({spiro-[2.3]hexan-5-yl}methyl)-amino]-1H-pyrazolo[4,3-d]pyrimidin-1-yl}methyl)-4-methoxy-N-(1-methylpiperidin-4-yl)benzamide] | 467 | 159 |  | 
5 | CCC[C@@H](CCO)Nc1nc(N)nc2c(C)nn(Cc3cc(CN4CCNCC4)ccc3OC)c12 [Compound 161, (3S)-3-{[5-amino-1-({2-methoxy-5-[(piperazin-1-yl)methyl]phenyl}methyl)-3-methyl-1H-pyrazolo[4,3-d]pyrimidin-7-yl]amino}hexan-1-ol] | 340 | 132 |  | 
6 | CCC[C@@H](CCO)Nc1nc(N)nc2cnn(Cc3cc(CN4C[C@H]5C[C@@H]4CN5C)c(F)cc3OC)c12 [Compound 171, (3S)-3-({5-amino-1-[(4-fluoro-2-methoxy-5-{[(1R,4R)-5-methyl-2,5-diazabicyclo[2.2.1]heptan-2-yl]methyl}phenyl)methyl]-1H-pyrazolo[4,3-d]pyrimidin-7-yl}amino)hexan-1-ol] |  |  | 437 | 140
7 | CCCCNc1nc(N)nc2cnn(Cc3cc(CN4CCN(C(=O)C5CCC5)CC4)ccc3OC)c12 [Compound 138, N7-butyl-1-({5-[(4-cyclo-butanecarbonylpiperazin-1-yl)methyl]-2-methoxy-phenyl}methyl)-1H-pyrazolo-[4,3-d]pyrimidine-5,7-diamine] | 2070 | ≥ 1000 |  | 
8 | CCC[C@@H](CCO)Nc1nc(N)nc2cnn(Cc3cc(CNC)c(F)cc3OC)c12 [Compound 169, (3S)-3-{[5-amino-1-({4-fluoro-2-methoxy-5-[(methylamino)-methyl]phenyl}methyl)-1H-pyrazolo[4,3-d]pyrimidin-7-yl]amino}hexan-1-ol] |  |  | 43.5 | 6.2
9 | CCCCNc1nc(N)nc2cnn(Cc3cc(CN(C)CCN(C)C)ccc3OC)c12 [Compound 133, N7-butyl-1-{[5-({[2-(dimethylamino)ethyl](methyl)-amino}methyl)-2-methoxy-phenyl]methyl}-1H-pyrazolo [4,3-d]pyrimidine-5,7-diamine] | 176 | 17 |  | 
10 | CCCCNc1nc(N)nc2cnn(Cc3cc(C#N)ccc3OC)c12 [Compound 145, 3-{[5-amino-7-(butyl-amino)-1H-pyrazolo[4,3-d]pyrimidin-1-yl]methyl}-4-methoxybenzonitrile] | 402 | 942 |  | 
11 | CCCCNc1nc(N)nc2cnn(Cc3cc(CN(C)C(=O)CCO)ccc3OC)c12 [Compound 147, N-[(3-{[5-amino-7-(butyl-amino)-1H-pyrazolo[4,3-d]pyrimidin-1-yl]methyl}-4-methoxyphenyl)methyl]-3-hydroxy-N-methylpropanamide] | 170 | 455 |  | 
12 | 4-[3-({5-amino-7-[({spiro- [2.3]hexan-5-yl}methyl)- amino]-1H-pyrazolo[4,3- d]pyrimidin-1-yl}methyl)-4- methoxybenzoyl]piperazin- 2-one [Compound 153] | 2250 | 485 |  | 
13 | CCCCNc1nc(N)nc2cnn(Cc3cc(CN4CC5CC4CN5)ccc3OC)c12 (stereo not shown) [Compound 118, N7-butyl-1-{[5-({2,5-diaza-bicyclo[2.2.1]heptan-2-yl}methyl)-2-methoxy-phenyl]methyl}-1H-pyrazolo[4,3-d]pyrimidine-5,7-diamine] | 423 | 335 |  | 
14 | CCCCNc1nc(N)nc2cnn(Cc3cc(CNC4COC4)ccc3OC)c12 [Compound 122, N7-butyl-1-[(2-methoxy-5-{[(oxetan-3-yl)amino]-methyl}phenyl)methyl]-1H-pyrazolo[4,3-d]pyrimidine-5,7-diamine] | 548 | 225 |  | 
15 | CCC[C@@H](CCO)Nc1nc(N)nc2cnn(Cc3cc(CN4CCNCC4)c(F)cc3OC)c12 [Compound 167, (3S)-3-{[5-amino-1-({4-fluoro-2-methoxy-5-[(piperazin-1-yl)methyl]phenyl}methyl)-1H-pyrazolo[4,3-d]pyrimidin-7-yl]amino}hexan-1-ol] |  |  | 189 | 145
16 | CCCCNc1nc(N)nc2cnn(Cc3cc(CO)ccc3OC)c12 [Compound 140, (3-((5-amino-7-(butylamino)-1H-pyrazolo[4,3-d]pyrimidin-1-yl)methyl)-4-methoxyphenyl)methanol] | 27.5 | 134 |  | 
17 | CCC[C@@H](CCO)Nc1nc(N)nc2cnn(Cc3cc(CN4CCNCC4)ccc3OC)c12 [Compound 155, (3S)-3-{[5-amino-1-({2-methoxy-5-[(piperazin-1-yl)-methyl]phenyl}methyl)-1H-pyrazolo[4,3-d]pyrimidin-7-yl]amino}hexan-1-ol] | 150 | 129 |  | 
18 | CCC[C@@H](CCO)Nc1nc(N)nc2cnn(Cc3cc(CN4CCN(C)CC4)ccc3OC)c12 [Compound 157, (S)-3-((5-amino-1-(2-methoxy-5-((4-methylpiperazin-1-yl)methyl)benzyl)-1H-pyrazolo[4,3-d]pyrimidin-7-yl)amino)hexan-1-ol] | 22.5 | 13.2 |  | 
19 | CCCCNc1nc(N)nc2cnn(Cc3cc(COC)ccc3OC)c12 [Compound 139, N7-butyl-1-{[2-methoxy-5-(methoxymethyl)phenyl]-methyl}-1H-pyrazolo[4,3-d]pyrimidine-5,7-diamine] | 331 | 894 |  | 
20 | CCC[C@@H](CCO)Nc1nc(N)nc2c(C)nn(Cc3cc(CN4CCN(CCO)CC4)ccc3OC)c12 [Compound 159, (3S)-3-({5-amino-1-[(5-{[4-(2-hydroxyethyl)piperazin-1-yl]methyl}-2-methoxyphenyl)methyl]-3-methyl-1H-pyrazolo[4,3-d]pyrimidin-7-yl}amino)hexan-1-ol] | 98.6 | 37.1 |  | 
21 | COc1ccc(CNC2CCOCC2)cc1Cn1ncc2nc(N)nc(NCC3CC4(CC4)C3)c21 [Compound 150, 1-[(2-methoxy-5-{[(oxan-4-yl)amino]methyl}phenyl)-methyl]-N7-({spiro[2.3]-hexan-5-yl}methyl)-1H-pyrazolo[4,3-d]pyrimidine-5,7-diamine] | 387 | 298 |  | 
22 | CCC[C@@H](CCO)Nc1nc(N)nc2cnn(Cc3cc(CNC4CCOCC4)c(F)cc3OC)c12 [Compound 165, (3S)-3-({5-amino-1-[(4-fluoro-2-methoxy-5-{[(oxan-4-yl)amino]-methyl}phenyl)methyl]-1H-pyrazolo[4,3-d]pyrimidin-7-yl}amino)hexan-1-ol] |  |  | 89.9 | 27.3
23 | CCC[C@@H](CCO)Nc1nc(N)nc2cnn(Cc3cc(CN(C)CCN(C)C)cnc3OC)c12 [Compound 170, (3S)-3-[(5-amino-1-{[5-({[2-(dimethyl-amino)ethyl](methyl)amino}-methyl)-2-methoxypyridin-3-yl]methyl}-1H-pyrazolo[4,3-d]pyrimidin-7-yl)amino]hexan-1-ol] |  |  | 770 | 170

From patent publication US20230118688A1, “1H-PYRAZOLO[4,3-d]PYRIMIDINE COMPOUNDS AS TOLL-LIKE RECEPTOR 7 (TLR7) AGONISTS” (BRISTOL-MYERS SQUIBB COMPANY, priority 2020, published 2023)
